Assay results as given in patent publication US4213994A, “Imidazolyl-(2)-carbinols having hypolipidemic action and process for preparing them” (Hoechst Aktiengesellschaft, priority 1971, dated 1980).
Like-named read-outs stand apart in the source and are kept apart here.

Tests used:
[1] = acute toxicity, LD50 determined on the mouse upon oral administration; conditions: in vivo
Source text: While having an extremely low acute toxicity (cf. LD50 -values in Table I), the imidazolyl-(2)-carbinols reduce the lipid level in the serum and reduce artificially produced hyperlipidemia.
The values in brackets of the first column designate the LD50values
(§1) in g/kg, determined on the mouse upon oral administration. The values

serum lipid level = assay: Standard test on a male rat with normal serum lipid level (hypolipidemic action, 8 peroral administrations); assay type: in vivo; conditions: for change in vivo at 30 mg/kg / change in vivo at 100 mg/kg / change in vivo at 10 mg/kg: Rattus norvegicus, po, 192 h
Method: 1. Standard test on a male rat with normal serum lipid level
The period of time used for the experiment was 8 days. Administration was effected once daily with the aid of an oesophageal sound with doses of 100, 30 and 10 mg/kg, respectively. In general, blood was withdrawn prior to and after the treatment and the concentration of cholesterin was determined in the serum according to the method described by Lauber and Richterich and that of triglycerides according to the method described by Eggstein and Kreutz.
as §1
before the oblique stroke of the other columns denote the percentual
change of the posterior value (value after the treatment) referred to the
anterior value (starting value before the treatment) of the group of
preparations, the anterior value being 100%; the values behind the obliqu
stroke indicate the percentual change of the posterior value of the group
treated with reference to the posterior value (= 100%) of a placebo group

triton-hyperlipidemia = assay: Triton-Hyperlipidemia of the male rat (inhibition of triton-hyperlipidemia); assay type: in vivo; conditions: 4-days pre-treatment; for Inhibition of triton-hyperlipidemia, Serum-cholesterin / Inhibition of triton-hyperlipidemia, Serum-triglyceride: 300 mg/kg Triton WR 1339 i.p., Triton control = 100%
Method: 2. Triton-Hyperlipidemia of the male rat
The influence of a 4-days pre-treatment with the compound of Example 1 on the formation of hyperlipidemia produced by i.p. application of 300 mg/kg of Triton ® WR 1339 was tested in comparison to a control group (=100%) which had only been treated with Triton.

[2] = tested on: dietetic hypercholesterinemia; assay: Dietetic hypercholesterinemia of the male rat (inhibition of dietetic hypercholesterinemia); assay type: in vivo; conditions: 100 mg/kg p.o. once daily
Method: 3. Dietetic hypercholesterinemia of the male rat
Hypercholesterinemia was produced by the addition of 2% of cholesterin and 20% of coconut fat (Palmin) to the normal fodder. The rise of the cholesterin level was determined by comparison with a control group (=100%) which had been given normal fodder only. (Line 1 in Table III). The animals of the preparation group obtained at the same time of the begin of the diet daily once 100 mg/kg p.o. of the compound of Example 1. […]

[3] = solubility in the usual solvents; assay type: physicochemical
[4] = 10 mg/kg/day p.o., 8 administrations
[5] = 30 mg/kg/day p.o., 8 administrations, value before the oblique stroke (anterior value = 100%), read-out: % change of Serum-Cholesterin, after treatment vs starting value before treatment
[6] = 30 mg/kg/day p.o., 8 administrations, value before the oblique stroke (anterior value = 100%), read-out: % change of Serum-triglycerides, after treatment vs starting value before treatment
[7] = 30 mg/kg/day p.o., 8 administrations, value behind the oblique stroke (placebo posterior value = 100%), read-out: % change of Serum-Cholesterin, treated group vs placebo group
[8] = 30 mg/kg/day p.o., 8 administrations, value behind the oblique stroke (placebo posterior value = 100%), read-out: % change of Serum-triglycerides, treated group vs placebo group
[9] = 100 mg/kg/day p.o., 8 administrations, value before the oblique stroke (anterior value = 100%), read-out: % change of Serum-Cholesterin, after treatment vs starting value before treatment
[10] = 100 mg/kg/day p.o., 8 administrations, value before the oblique stroke (anterior value = 100%), read-out: % change of Serum-triglycerides, after treatment vs starting value before treatment
[11] = 100 mg/kg/day p.o., 8 administrations, value behind the oblique stroke (placebo posterior value = 100%), read-out: % change of Serum-Cholesterin, treated group vs placebo group
[12] = 100 mg/kg/day p.o., 8 administrations, value behind the oblique stroke (placebo posterior value = 100%), read-out: % change of Serum-triglycerides, treated group vs placebo group
[13] = read-out: % change of Serum-Cholesterin, after treatment vs starting value before treatment
[14] = read-out: % change of Serum-triglycerides, after treatment vs starting value before treatment
[15] = read-out: % change of Serum-triglycerides, treated group vs placebo group

In the case of `CCOC(=O)C(C)(C)Oc1ccc(Cl)cc1` [Clofibrate, 2-(p-chlorophenoxy)-isobutyric acid ethyl ester, reference compound], the LD50 [1] is reported as 2000 to 2500 mg/kg, the “change of Serum-Cholesterin (in words)” value (serum lipid level; [4]) is reported as “ineffective” and the “change of Serum-triglycerides (in words)” value (serum lipid level; [4]) is reported as “ineffective”. For the same compound, the change in vivo at 30 mg/kg (serum lipid level; [5]) was -5%, the change in vivo at 30 mg/kg (serum lipid level; [6]) was -4% and the change in vivo at 30 mg/kg (serum lipid level; [7]) was -8%. It also gave a change in vivo at 30 mg/kg (serum lipid level; [8]) of -7%, a change in vivo at 100 mg/kg (serum lipid level; [9]) of -22% and a change in vivo at 100 mg/kg (serum lipid level; [10]) of -30%. For the same compound, the change in vivo at 100 mg/kg (serum lipid level; [11]) was -13%, the change in vivo at 100 mg/kg (serum lipid level; [12]) was -30% and the “Inhibition of triton-hyperlipidemia, Serum-cholesterin (in words)” value (triton-hyperlipidemia; 10 mg/kg/day p.o.) was “ineffective”. For the same compound, the “Inhibition of triton-hyperlipidemia, Serum-triglyceride (in words)” value (triton-hyperlipidemia; 10 mg/kg/day p.o.) was “ineffective”, the “Inhibition of triton-hyperlipidemia, Serum-cholesterin” value (triton-hyperlipidemia; 100 mg/kg/day p.o.) was -29% and the “Inhibition of triton-hyperlipidemia, Serum-triglyceride” value (triton-hyperlipidemia; 100 mg/kg/day p.o.) was -16%.
With `OC(c1ccccc1)(c1nccn1Cc1ccccc1)c1nccn1Cc1ccccc1` [Example 1, Bis-[1-benzylimidazolyl-(2)]-phenyl-carbinole] the LD50 [1] was greater than 4000 mg/kg, the change in vivo at 10 mg/kg (serum lipid level; 10 mg/kg/day p.o., 8 administrations, value before the oblique stroke (anterior value = 100%), read-out: % change of Serum-Cholesterin, after treatment vs starting value before treatment) was -10% and the change in vivo at 10 mg/kg (serum lipid level; 10 mg/kg/day p.o., 8 administrations, value behind the oblique stroke (placebo posterior value = 100%), read-out: % change of Serum-Cholesterin, treated group vs placebo group) was -12%. For the same compound, the change in vivo at 10 mg/kg (serum lipid level; 10 mg/kg/day p.o., 8 administrations, value behind the oblique stroke (placebo posterior value = 100%), read-out: % change of Serum-triglycerides, treated group vs placebo group) was -13%, the change in vivo at 30 mg/kg (serum lipid level; [5]) was -33% and the change in vivo at 30 mg/kg (serum lipid level; [6]) was -25%. For the same compound, the change in vivo at 30 mg/kg (serum lipid level; [7]) was -10%, the change in vivo at 30 mg/kg (serum lipid level; [8]) was -10% and the “Inhibition of triton-hyperlipidemia, Serum-cholesterin” value (triton-hyperlipidemia; 10 mg/kg/day p.o.) was -31%. For the same compound, the “Inhibition of triton-hyperlipidemia, Serum-triglyceride” value (triton-hyperlipidemia; 10 mg/kg/day p.o.) was -40%, the “Inhibition of triton-hyperlipidemia, Serum-cholesterin” value (triton-hyperlipidemia; 100 mg/kg/day p.o.) was -28% and the “Inhibition of triton-hyperlipidemia, Serum-triglyceride” value (triton-hyperlipidemia; 100 mg/kg/day p.o.) was -35%. For the same compound, the “% change of the total cholesterin content in the serum, inhibition due to preparation (diet = 100%)” value ([2]; after 8 days) was -23%, the “% change of the total cholesterin content in the serum, inhibition due to preparation (diet = 100%)” value ([2]; after 20 days) was -19% and the “% change of the total cholesterin content in the serum, inhibition due to preparation (diet = 100%)” value ([2]; after 33 days) was -9%.
For `CC(O)c1nccn1Cc1ccccc1` (stereo not drawn) [Example 2, 1-[1-benzylimidazolyl-(2)]-ethanol], the LD50 [1] was 1120 mg/kg, the change in vivo at 100 mg/kg (serum lipid level; [9]) was -24% and the change in vivo at 100 mg/kg (serum lipid level; [11]) was -3%. The change in vivo at 100 mg/kg (serum lipid level; [12]) was -4%.
`CC(C)n1ccnc1C(O)C(Cl)(Cl)Cl` (stereo not drawn) [Example 3, 1-[1-Isopropylimidazolyl-(2)]-2,2,2-trichloroethanol] gave an LD50 [1] greater than 4000 mg/kg, a change in vivo at 30 mg/kg (serum lipid level; [13]) of -16% and a change in vivo at 100 mg/kg (serum lipid level; [13]) of -6%. It also gave a change in vivo at 100 mg/kg (serum lipid level; read-out: % change of Serum-Cholesterin, treated group vs placebo group) of -18%, a change in vivo at 30 mg/kg (serum lipid level; [14]) of -21% and a change in vivo at 100 mg/kg (serum lipid level; [14]) of -57%. For the same compound, the change in vivo at 30 mg/kg (serum lipid level; [15]) was -6% and the change in vivo at 100 mg/kg (serum lipid level; [15]) was -30%.
Work on `OC1(c2nccn2Cc2ccccc2)c2ccccc2-c2ccccc21` [Example 4, 9-[1-Benzylimidazolyl-(2)]-fluorene-9-ol] yielded an LD50 [1] greater than 4000 mg/kg, a change in vivo at 30 mg/kg (serum lipid level; [5]) of -11% and a change in vivo at 30 mg/kg (serum lipid level; [6]) of -25%. It also gave a change in vivo at 100 mg/kg (serum lipid level; [9]) of -16%, a change in vivo at 100 mg/kg (serum lipid level; [10]) of -48% and a change in vivo at 100 mg/kg (serum lipid level; [11]) of -21%. For the same compound, the change in vivo at 100 mg/kg (serum lipid level; [12]) was -37%.
With `Cn1ccnc1C(O)(c1ccccc1)c1ccc(Cl)cc1Cl` (stereo not drawn) [Example 5, Phenyl-(2,4-dichlorophenyl)-[1-methylimidazolyl-(2)]-carbinol] the LD50 [1] was greater than 4000 mg/kg, the change in vivo at 30 mg/kg (serum lipid level; [5]) was -23% and the change in vivo at 30 mg/kg (serum lipid level; [6]) was -1%. For the same compound, the change in vivo at 30 mg/kg (serum lipid level; [7]) was -9%, the change in vivo at 30 mg/kg (serum lipid level; [8]) was -17% and the change in vivo at 100 mg/kg (serum lipid level; [9]) was -19%. For the same compound, the change in vivo at 100 mg/kg (serum lipid level; [10]) was -37%, the change in vivo at 100 mg/kg (serum lipid level; [11]) was -32% and the change in vivo at 100 mg/kg (serum lipid level; [12]) was -35%.
In the case of `Cn1c(C(O)(c2ccccc2)c2ccc(Cl)cc2Cl)nc2ccccc21` (stereo not drawn) [Example 6, Phenyl-(2,4-dichlorophenyl)-[1-methylbenzimidazolyl-(2)]-carbinol], the LD50 [1] is reported as greater than 4000 mg/kg, the change in vivo at 30 mg/kg (serum lipid level; [5]) is reported as -20% and the change in vivo at 30 mg/kg (serum lipid level; [6]) is reported as -19%. The change in vivo at 30 mg/kg (serum lipid level; [8]) was -29%, the change in vivo at 100 mg/kg (serum lipid level; [9]) was -12% and the change in vivo at 100 mg/kg (serum lipid level; [10]) was -46%. It also gave a change in vivo at 100 mg/kg (serum lipid level; [11]) of -25% and a change in vivo at 100 mg/kg (serum lipid level; [12]) of -35%.
For `OC(c1ccccc1)(c1ncc[nH]1)c1ncc[nH]1` [Example 7, Bis-[imidazolyl-(2)]-phenyl-carbinol], the LD50 [1] was greater than 4000 mg/kg, the change in vivo at 100 mg/kg (serum lipid level; [9]) was -7% and the change in vivo at 100 mg/kg (serum lipid level; [10]) was -18%. The change in vivo at 100 mg/kg (serum lipid level; [12]) was -18% and the “solubility (in words)” value [3] was “not soluble or poorly soluble only in the usual solvents”.
Work on `CC(C)n1ccnc1C(C)(O)c1ccc(Cl)cc1` (stereo not drawn) [Example 8, Methyl-(p-chlorophenyl)-[1-isopropylimidazolyl-(2)]-carbinol] yielded an LD50 [1] greater than 4000 mg/kg, a change in vivo at 100 mg/kg (serum lipid level; [9]) of -14% and a change in vivo at 100 mg/kg (serum lipid level; [10]) of -39%. For the same compound, the change in vivo at 100 mg/kg (serum lipid level; [12]) was -21%.
In the case of `Cn1c(C(O)c2nccn2Cc2ccccc2)nc2ccccc21` (stereo not drawn) [Example 9, [1-Benzylimidazolyl-(2)]-[1-methylbenzimidazolyl-(2)]-carbinol], the LD50 [1] is reported as greater than 4000 mg/kg, the change in vivo at 100 mg/kg (serum lipid level; [9]) is reported as -21% and the change in vivo at 100 mg/kg (serum lipid level; [10]) is reported as -40%. The change in vivo at 100 mg/kg (serum lipid level; [11]) was -11% and the change in vivo at 100 mg/kg (serum lipid level; [12]) was -24%.
In the case of `CC(O)(c1ccc(OC(F)(F)C(F)Cl)cc1)c1nccn1Cc1ccccc1` (stereo not drawn) [Example 10, 1-[p-(1,1,2-trifluoro-2-chloro-ethoxy)-phenyl]-1-[1-benzylimidazolyl-(2)]-ethanol], the LD50 [1] is reported as greater than 4000 mg/kg, the change in vivo at 100 mg/kg (serum lipid level; [9]) is reported as -36% and the change in vivo at 100 mg/kg (serum lipid level; [10]) is reported as -56%. For the same compound, the change in vivo at 100 mg/kg (serum lipid level; [11]) was -21% and the change in vivo at 100 mg/kg (serum lipid level; [12]) was -26%.
`COc1ccc(C(O)c2nccn2-c2ccccc2)cc1OC` (stereo not drawn) [Example 11, (3,4-Dimethoxy-phenyl)-[1-phenylimidazolyl-(2)]-carbinol] gave an LD50 [1] greater than 4000 mg/kg, a change in vivo at 100 mg/kg (serum lipid level; [9]) of -24% and a change in vivo at 100 mg/kg (serum lipid level; [10]) of -32%. The change in vivo at 100 mg/kg (serum lipid level; [11]) was -3% and the change in vivo at 100 mg/kg (serum lipid level; [12]) was -21%.
